{
  "source": "paper PMC8287028",
  "about": "(Frontiers in Veterinary Science, 2021)",
  "key": {"[1]": {"conditions": "male beagles, 5 mg/kg 14C labeled apixaban orally; cited from earlier work"}, "healthy mixed-breed dogs": {"test_system": "healthy mixed-breed dogs", "test": "Complete blood count before and after apixaban", "assay_type": "in vivo, dog", "set-up": "RBC: unit not given beside the values; Neut / Lymph / Mono / Eos / Baso / HCT / MCV / MCH / MCHC: unit not given here", "conditions": "for Baso / Eos / HCT / Hgb / Lymph / MCH / MCHC / MCV / Mono / Neut / RBC / WBC: individual dogs (Dog 1-6); for WBC: in 10^3/µL (unit assumed)"}, "[2]": {"test_system": "activated partial thromboplastin time", "test": "Activated partial thromboplastin time (aPTT) on citrated plasma of dosed dogs", "assay_type": "in vivo, dog", "experimental": "Coagulation assays were performed on platelet-poor, citrated plasma samples by a reference laboratory (Comparative Coagulation Laboratory, Animal Health Diagnostic Center, Ithaca, NY). […] The assay is configured with a bovine activated Factor X reagent that is added in excess to the test plasma and a chromogenic substrate of Factor Xa (STA Liquid anti-Xa, Diagnostica Stago). Residual, uninhibited Factor Xa cleaves the chromogenic substrate such that the inverse of the color change in the reaction mixture is proportional to the drug concentration in the test plasma. […] Assay controls, consisting of human plasma spiked with apixaban (STA Apixaban Controls, Diagnostica Stago) were analyzed before each batch of test samples to confirm assay performance. The apixaban levels in calibrators and controls are defined by the manufacturer from an internal reference assayed by HPLC-MS. […] A mechanical endpoint method (STA Compact, Diagnostica Stago) and human coagulation reagents were used to measure prothrombin time (Thromboplastin LI, Helena Diagnostics, Beaumont, TX) and activated partial thromboplastin time (Dade Actin FS, Dade Behring, Newark, DE). […]"}},
  "note": "Values joined by “and” are separate entries in the source; they are usually repeats but may differ in a detail not shown here. Identical values can stand only once. “Also recorded” adds a separate entry of the source.",
  "data": [
    {"smiles": "COc1ccc(-n2nc(C(N)=O)c3c2C(=O)N(c2ccc(N4CCCCC4=O)cc2)CC3)cc1", "note": "[apixaban]", "values": [
      {"measurement": "excretion of the unchanged compound via gastrointestinal routes", "setting": "[1]", "value": 59, "unit": "%"},
      {"measurement": "excretion of the unchanged compound via renal route", "setting": "[1]", "value": 7, "unit": "%"},
      {"measurement": "Baso", "setting": "healthy mixed-breed dogs; +24h after IV apixaban", "value": "0.1 (2×) and 0.0 (4×)"},
      {"measurement": "Eos", "setting": "healthy mixed-breed dogs; +24h after IV apixaban", "value": "0.3 (2×) and 0.4 (2×) and 0.7 (2×)"},
      {"measurement": "HCT", "setting": "healthy mixed-breed dogs; +24h after IV apixaban", "value": "53 and 52 (2×) and 54 (2×) and 57"},
      {"measurement": "Hgb", "setting": "healthy mixed-breed dogs; +24h after IV apixaban", "value": "17.7 and 17.2 and 16.8 and 17.5 (2×) and 18.3"},
      {"measurement": "Lymph", "setting": "healthy mixed-breed dogs; +24h after IV apixaban", "value": "2.3 and 2 (2×) and 3.3 and 1.6 and 3.7"},
      {"measurement": "MCH", "setting": "healthy mixed-breed dogs; +24h after IV apixaban", "value": "25 (3×) and 23 and 24 (2×)"},
      {"measurement": "MCHC", "setting": "healthy mixed-breed dogs; +24h after IV apixaban", "value": "33 (2×) and 32 (4×)"},
      {"measurement": "MCV", "setting": "healthy mixed-breed dogs; +24h after IV apixaban", "value": "73 and 75 and 71 and 74 and 76 (2×)"},
      {"measurement": "Mono", "setting": "healthy mixed-breed dogs; +24h after IV apixaban", "value": "0.3 (2×) and 0.6 and 0.5 (3×)"},
      {"measurement": "Neut", "setting": "healthy mixed-breed dogs; +24h after IV apixaban", "value": "4.1 and 5.8 and 5.6 (2×) and 5.1 and 8.0"},
      {"measurement": "RBC", "setting": "healthy mixed-breed dogs; +24h after IV apixaban", "value": "7.2 (2×) and 6.9 and 7.3 (2×) and 7.4"},
      {"measurement": "WBC", "setting": "healthy mixed-breed dogs; +24h after IV apixaban", "value": "7.1 and 8.8 and 9.6 and 8.9 and 7.6 and 13"},
      {"measurement": "Baso", "setting": "healthy mixed-breed dogs; +30h after PO apixaban", "value": "0 (3×) and 0.1 and 0.0 (2×)"},
      {"measurement": "Eos", "setting": "healthy mixed-breed dogs; +30h after PO apixaban", "value": "0.3 (2×) and 0.2 (2×) and 0.4 and 0.6"},
      {"measurement": "HCT", "setting": "healthy mixed-breed dogs; +30h after PO apixaban", "value": "56 and 55 and 52 (2×) and 46 and 50"},
      {"measurement": "Lymph", "setting": "healthy mixed-breed dogs; +30h after PO apixaban", "value": "3.2 and 2 (2×) and 1.6 and 0.8 and 3.6"},
      {"measurement": "MCH", "setting": "healthy mixed-breed dogs; +30h after PO apixaban", "value": "24 (2×) and 25 (2×) and 23 (2×)"},
      {"measurement": "MCHC", "setting": "healthy mixed-breed dogs; +30h after PO apixaban", "value": "33 (4×) and 32 (2×)"},
      {"measurement": "MCV", "setting": "healthy mixed-breed dogs; +30h after PO apixaban", "value": "72 (2×) and 76 and 70 and 75 and 74"},
      {"measurement": "Mono", "setting": "healthy mixed-breed dogs; +30h after PO apixaban", "value": "0.5 (4×) and 0.4 and 0.3"},
      {"measurement": "Neut", "setting": "healthy mixed-breed dogs; +30h after PO apixaban", "value": "6.1 (2×) and 5.4 and 7.9 and 5.7 and 7.3"},
      {"measurement": "WBC", "setting": "healthy mixed-breed dogs; +30h after PO apixaban", "value": "10.1 and 8.3 and 10.8 and 8 and 7.6 and 12.1"},
      {"measurement": "RBC", "setting": "healthy mixed-breed dogs; +30h after PO apixaban, in 10^6/µL (unit assumed)", "value": "7.8 and 7.3 and 7.4 and 6.2 and 7 and 7.1"},
      {"measurement": "Hgb", "setting": "healthy mixed-breed dogs; +30h after PO apixaban, in g/dL (unit assumed)", "value": "18.6 and 18 and 17 and 15.1 and 16.2 and 16.9"},
      {"measurement": "CBC parameters", "setting": "healthy mixed-breed dogs; IV, baseline versus 24 h", "value": "No changes"},
      {"measurement": "mean corpuscular hemoglobin concentration", "setting": "healthy mixed-breed dogs; PO, baseline versus 30 h", "value": "significant reduction"},
      {"measurement": "aPTT versus baseline", "setting": "[2]; IV 0.18 mg/kg, at 5 and 15 min post-injection", "value": "significantly prolonged"},
      {"measurement": "aPTT versus baseline", "setting": "[2]; PO 0.2 mg/kg, 0.2 mg/kg", "value": "not consistently affected; also recorded: did not have a significant effect"}
    ]}
  ]
}
